Laboratory results: patent publication US10640506B2, “Cyclobutyl substituted pyrrolopyridine and pyrrolopyrimidines derivatives as JAK inhibitors” (Incyte Corporation, priority 2010, dated 2020)
Like-named read-outs stand apart in the source and are kept apart here.

Key:
[1] = target: human JAK1 (a.a. 837-1142) (Homo sapiens, UniProt P23458); experiment: In vitro JAK kinase assay (HTRF, phosphorylation of biotinylated peptide), JAK1; format: biochemical; settings: 1 mM ATP
Summary of the method: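 His-tagged human JAK1 catalytic domain (a.a. 837-1142), baculovirus/insect-cell expressed, phosphorylates a biotinylated peptide for 1 h at room temperature. Reaction stopped with EDTA; product detected by HTRF (SA-APC, Eu-Py20, 40 min binding). IC50 reported as ranges.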

[2] = target: T1, JAK2 (a.a. 828-1132) (Homo sapiens, UniProt O60674); experiment: In vitro JAK kinase assay (HTRF, phosphorylation of biotinylated peptide), JAK2; format: biochemical; settings: 1 mM ATP
T1 construct: JAK2 (a.a. 828-1132); His tag (N)
T1 sequence (O60674 828-1132): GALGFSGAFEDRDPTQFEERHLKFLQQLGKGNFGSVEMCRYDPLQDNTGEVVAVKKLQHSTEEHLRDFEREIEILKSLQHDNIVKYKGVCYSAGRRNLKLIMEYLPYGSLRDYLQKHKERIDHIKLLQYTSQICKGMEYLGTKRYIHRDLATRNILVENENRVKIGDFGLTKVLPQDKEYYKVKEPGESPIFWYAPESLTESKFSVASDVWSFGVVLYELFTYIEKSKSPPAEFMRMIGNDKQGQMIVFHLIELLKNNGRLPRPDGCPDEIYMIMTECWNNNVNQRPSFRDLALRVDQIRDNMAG
Summary of the method: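 His-tagged catalytic domains of human JAK1 (a.a. 837-1142) and JAK2 (a.a. 828-1132), baculovirus-expressed, phosphorylate a biotinylated peptide for 1 hour at room temperature. Stopped with EDTA; detected by HTRF using SA-APC and Eu-Py20 antibody after 40 min binding; values binned as ranges.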

human JAK1 (a.a. 837-1142), sequence (P23458 849-1154): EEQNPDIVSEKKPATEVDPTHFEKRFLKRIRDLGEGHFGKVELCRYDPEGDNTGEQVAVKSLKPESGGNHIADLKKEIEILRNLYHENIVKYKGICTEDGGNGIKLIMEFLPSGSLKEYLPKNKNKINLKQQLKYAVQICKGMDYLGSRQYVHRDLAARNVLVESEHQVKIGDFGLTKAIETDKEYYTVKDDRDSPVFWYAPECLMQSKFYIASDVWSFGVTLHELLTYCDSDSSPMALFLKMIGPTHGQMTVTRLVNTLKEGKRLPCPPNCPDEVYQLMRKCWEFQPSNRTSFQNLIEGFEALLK

IC50 ([1]; Table F) | IC50 ([2]; Table F) | SMILES | other results
 |  | N#CC[C@]1(n2cc(-c3ncnc4[nH]ccc34)cn2)C[C@@H](N2CCN(C(=O)c3cc(F)cc(F)c3)CC2)C1 [Example 8a, {cis-3-[4-(3,5-difluorobenzoyl)piperazin-1-yl]-1-[4-(7H-pyrrolo[2,3-d]pyrimidin-4-yl)-1H-pyrazol-1-yl]cyclobutyl}acetonitrile] | IC50 ([1]; Table A, read-out: JAK1 IC50): < 10 nM; IC50 ([2]; Table A, read-out: JAK2 IC50): 25 to 100 nM
< 10 nM | 25 to 100 nM | CC[C@@H](C)NC(=O)N1CCN([C@H]2C[C@](CC#N)(n3cc(-c4ncnc5[nH]ccc45)cn3)C2)CC1 [Example 102, 4-{trans-3-(cyanomethyl)-3-[4-(7H-pyrrolo[2,3-d]pyrimidin-4-yl)-1H-pyrazol-1-yl]cyclobutyl}-N-[(1R)-1-methylpropyl]piperazine-1-carboxamide] | 
< 10 nM | > 100 nM | N#CC[C@]1(n2cc(-c3ncnc4[nH]ccc34)cn2)C[C@H](N2CCC(Oc3cc(CO)cc(C(F)(F)F)n3)CC2)C1 (single isomer, unassigned) [Example 123, {trans-3-(4-{[4-(hydroxymethyl)-6-(trifluoromethyl)pyridin-2-yl]oxy}piperidin-1-yl)-1-[4-(7H-pyrrolo[2,3-d]pyrimidin-4-yl)-1H-pyrazol-1-yl]cyclobutyl}acetonitrile] | 
< 10 nM | 25 to 100 nM | CC(C)(O)c1cc(OC2CCN([C@H]3C[C@](CC#N)(n4cc(-c5ncnc6[nH]ccc56)cn4)C3)CC2)nc(C(F)(F)F)c1 (single isomer, unassigned) [Example 125, {trans-3-(4-{[4-(1-hydroxy-1-methylethyl)-6-(trifluoromethyl)pyridin-2-yl]oxy}piperidin-1-yl)-1-[4-(7H-pyrrolo[2,3-d]pyrimidin-4-yl)-1H-pyrazol-1-yl]cyclobutyl}acetonitrile] | 
10 to 25 nM | > 100 nM | N#CC[C@]1(n2cc(-c3ncnc4[nH]ccc34)cn2)C[C@@H](N2CCN(C(=O)NC3CC3)CC2)C1 [Example 107, 4-{cis-3-(cyanomethyl)-3-[4-(7H-pyrrolo[2,3-d]pyrimidin-4-yl)-1H-pyrazol-1-yl]cyclobutyl}-N-cyclopropylpiperazine-1-carboxamide] | 
< 10 nM | 25 to 100 nM | CC(C)(O)c1cc(C(=O)N2CCN([C@H]3C[C@](CC#N)(n4cc(-c5ccnc6[nH]ccc56)cn4)C3)CC2)nc(C(F)(F)F)c1 [Example 163, {trans-3-(4-{[4-(1-hydroxy-1-methylethyl)-6-(trifluoromethyl)pyridin-2-yl]carbonyl}piperazin-1-yl)-1-[4-(1H-pyrrolo[2,3-b]pyridin-4-yl)-1H-pyrazol-1-yl]cyclobutyl}acetonitrile] | 
< 10 nM | 25 to 100 nM | CC(C)OC(=O)N1CCN([C@H]2C[C@](CC#N)(n3cc(-c4ncnc5[nH]ccc45)cn3)C2)CC1 [Example 120, isopropyl 4-{trans-3-(cyanomethyl)-3-[4-(7H-pyrrolo[2,3-d]pyrimidin-4-yl)-1H-pyrazol-1-yl]cyclobutyl}piperazine-1-carboxylate] | 
 |  | N#CC[C@]1(n2cc(-c3ncnc4[nH]ccc34)cn2)C[C@H](N2CCN(C(=O)c3cccc(C(F)(F)F)n3)CC2)C1 [Example 20b, {trans-1-[4-(7H-pyrrolo[2,3-d]pyrimidin-4-yl)-1H-pyrazol-1-yl]-3-(4-{[6-(trifluoromethyl)pyridin-2-yl]carbonyl}piperazin-1-yl)cyclobutyl}acetonitrile] | IC50 ([1]; Table B, read-out: JAK1 IC50): < 10 nM; IC50 ([2]; Table B, read-out: JAK2 IC50): 25 to 100 nM
10 to 25 nM | > 100 nM | N#CC[C@]1(n2cc(-c3ncnc4[nH]ccc34)cn2)C[C@H](N2CCN(C(=O)c3cc(C(=O)O)nc(C(F)(F)F)n3)CC2)C1 [Example 48, 6-[(4-{trans-3-(cyanomethyl)-3-[4-(7H-pyrrolo[2,3-d]pyrimidin-4-yl)-1H-pyrazol-1-yl]cyclobutyl}piperazin-1-yl)carbonyl]-2-(trifluoromethyl)pyrimidine-4-carboxylic acid] | 
< 10 nM | 25 to 100 nM | N#CC[C@]1(n2cc(-c3ncnc4[nH]ccc34)cn2)C[C@H](N2CCC(Oc3cc(CN4CCC[C@H]4CO)cc(C(F)(F)F)n3)CC2)C1 [Example 161, {trans-3-(4-{[4-{[(2S)-2-(hydroxymethyl)pyrrolidin-1-yl]methyl}-6-(trifluoromethyl)pyridin-2-yl]oxy}piperidin-1-yl)-1-[4-(7H-pyrrolo[2,3-d]pyrimidin-4-yl)-1H-pyrazol-1-yl]cyclobutyl}acetonitrile] | 
 |  | C[C@H]1CCCN1C(=O)N1CCN([C@H]2C[C@](CC#N)(n3cc(-c4ncnc5[nH]ccc45)cn3)C2)CC1 [Example 4b, {trans-3-(4-{[(2S)-2-methylpyrrolidin-1-yl]carbonyl}piperazin-1-yl)-1-[4-(7H-pyrrolo[2,3-d]pyrimidin-4-yl)-1H-pyrazol-1-yl]cyclobutyl}acetonitrile] | IC50 ([1]; Table B, read-out: JAK1 IC50): < 10 nM; IC50 ([2]; Table B, read-out: JAK2 IC50): > 100 nM
< 10 nM | < 10 nM | N#CC[C@]1(n2cc(-c3ncnc4[nH]ccc34)cn2)C[C@@H](N2CCN(C(=O)c3cc(C4(N)CCC4)nc(C(F)(F)F)n3)CC2)C1 [Example 62, {cis-3-(4-{[6-(1-aminocyclobutyl)-2-(trifluoromethyl)pyrimidin-4-yl]carbonyl}piperazin-1-yl)-1-[4-(7H-pyrrolo[2,3-d]pyrimidin-4-yl)-1H-pyrazol-1-yl]cyclobutyl}acetonitrile] | 
25 to 100 nM | > 100 nM | CC(C)N(C)C(=O)N1CCN([C@H]2C[C@](CC#N)(n3cc(-c4ncnc5[nH]ccc45)cn3)C2)CC1 [Example 79, 4-{trans-3-(cyanomethyl)-3-[4-(7H-pyrrolo[2,3-d]pyrimidin-4-yl)-1H-pyrazol-1-yl]cyclobutyl}-N-isopropyl-N-methylpiperazine-1-carboxamide] | 
< 10 nM | 25 to 100 nM | CC(C)CNC(=O)N1CCN([C@H]2C[C@](CC#N)(n3cc(-c4ncnc5[nH]ccc45)cn3)C2)CC1 [Example 101, 4-{trans-3-(cyanomethyl)-3-[4-(7H-pyrrolo[2,3-d]pyrimidin-4-yl)-1H-pyrazol-1-yl]cyclobutyl}-N-isobutylpiperazine-1-carboxamide] | 
25 to 100 nM | > 100 nM | N#CC[C@]1(n2cc(-c3ncnc4[nH]ccc34)cn2)C[C@H](N2CCN(C(=O)N3CCC[C@H]3C(F)(F)F)CC2)C1 [Example 117, [trans-1-[4-(7H-pyrrolo[2,3-d]pyrimidin-4-yl)-1H-pyrazol-1-yl]-3-(4-{[(2S)-2-(trifluoromethyl)pyrrolidin-1-yl]carbonyl}piperazin-1-yl)cyclobutyl]acetonitrile] | 
 |  | N#CC[C@]1(n2cc(-c3ncnc4[nH]ccc34)cn2)C[C@@H](N2CCN(Cc3cc(F)cc(C#N)c3)CC2)C1 [Example 1a, 3-[(4-{cis-3-(cyanomethyl)-3-[4-(7H-pyrrolo[2,3-d]pyrimidin-4-yl)-1H-pyrazol-1-yl]cyclobutyl}piperazin-1-yl)methyl]-5-fluorobenzonitrile] | IC50 ([1]; Table A, read-out: JAK1 IC50): < 10 nM; IC50 ([2]; Table A, read-out: JAK2 IC50): > 100 nM
 |  | N#CC[C@]1(n2cc(-c3ncnc4[nH]ccc34)cn2)C[C@H](N2CCN(C(=O)c3ccnc(C(F)(F)F)n3)CC2)C1 [Example 7b, [trans-1-[4-(7H-pyrrolo[2,3-d]pyrimidin-4-yl)-1H-pyrazol-1-yl]-3-(4-{[2-(trifluoromethyl)pyrimidin-4-yl]carbonyl}piperazin-1-yl)cyclobutyl]acetonitrile] | IC50 ([1]; Table B, read-out: JAK1 IC50): < 10 nM; IC50 ([2]; Table B, read-out: JAK2 IC50): 25 to 100 nM
